Experiments:
ERAlpha receptor = target: T1, ERAlpha receptor (Homo sapiens, UniProt P03372); assay: Competition binding assay with 3H-Estradiol, ERAlpha receptor; conditions: IC50 converted to Ki using Cheng-Prusoff equation; 3H-Estradiol competition; read-out: ER binding Ki (ERα)
T1 construct: purchased PanVera
T1 sequence (P03372 1-595): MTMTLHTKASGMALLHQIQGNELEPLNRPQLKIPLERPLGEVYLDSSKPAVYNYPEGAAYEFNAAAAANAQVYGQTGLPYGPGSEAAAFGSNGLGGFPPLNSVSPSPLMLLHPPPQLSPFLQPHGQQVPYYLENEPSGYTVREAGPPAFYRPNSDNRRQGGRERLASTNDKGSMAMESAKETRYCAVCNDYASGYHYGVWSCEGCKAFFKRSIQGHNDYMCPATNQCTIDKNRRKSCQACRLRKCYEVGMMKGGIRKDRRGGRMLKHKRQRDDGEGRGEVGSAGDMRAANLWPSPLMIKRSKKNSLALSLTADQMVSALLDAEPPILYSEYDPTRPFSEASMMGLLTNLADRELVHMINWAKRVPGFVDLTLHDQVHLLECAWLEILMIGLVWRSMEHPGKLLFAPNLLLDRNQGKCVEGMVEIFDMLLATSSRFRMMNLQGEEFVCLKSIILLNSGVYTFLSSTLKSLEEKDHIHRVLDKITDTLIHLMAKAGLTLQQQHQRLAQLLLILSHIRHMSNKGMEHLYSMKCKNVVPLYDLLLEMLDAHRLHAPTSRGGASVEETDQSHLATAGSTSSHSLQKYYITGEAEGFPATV
Method: (§1) Competition binding assay is run in a buffer containing 50 mM Hepes, pH 7.5, 1.5 mM EDTA, 150 mM NaCl, 10% glycerol, 1 mg/ml ovalbumin and 5 mM DTT, using 0.025 μCi per well ^3H-Estradiol (NEN #NET517 at 118 Ci/mmol, 1 mCi/ml), 10 ng/well ERAlpha or ERbeta receptor (PanVera). Competing compounds are added at 10 different concentrations. Non-specific binding is determined in the presence of 1 μM of 17-B Estradiol. The binding reaction (140 μl) is incubated for 4 hours at room temperature, then 70 μl of cold DCC buffer is added to each reaction (DCC buffer contains per 50 ml of assay buffer, 0.75 g of charcoal (Sigma) and 0.25 g of dextran (Pharmacia)). Plates are mixed 8 minutes on an orbital shaker at 4° C. Plates are then centrifuged at 3,000 rpm at 4° C. for 10 minutes. An aliquot of 120 μl of the mix is transferred to another 96-well, white flat bottom plate (Costar) and […] of Wallac Optiphase “Hisafe 3” scintillation fluid is added to each well. Plates are sealed and shaken vigorously on an orbital shaker. After an incubation of 2.5 hrs, read plates in a Wallac Microbeta counter. The data is used to calculate an IC50 and % Inhibition at 10 μM. The Kd for ^3H-Estradiol is determined by saturation binding to ER alpha and ER beta receptors. The IC50 values for compounds are converted to Ki using Cheng-Prusoff equation and the Kd determined by saturation binding assay.

ERbeta receptor = target: T2, ERbeta receptor (Homo sapiens, UniProt Q92731); assay: Competition binding assay with 3H-Estradiol, ERbeta receptor; conditions: IC50 converted to Ki using Cheng-Prusoff equation; 3H-Estradiol competition; read-out: ER binding Ki (ERβ)
T2 construct: purchased PanVera
Method: as §1

[1] = tested on: MCF-7 breast adenocarcinoma cells; assay: MCF-7 proliferation assay (14C-thymidine), antagonist mode; type: cell-based; conditions: Homo sapiens, MCF7, with 10 pM E2
Method: MCF-7 breast adenocarcinoma cells (ATCC HTB 22) are maintained in MEM (minimal essential medium, phenol red-free, Gibco BRL) supplemented with 10% fetal bovine serum (FBS) (V/V), L-glutamine (2 mM), sodium pyruvate (1 mM), HEPES ((N-[2-hydroxyethyl]piperazine-N′-[2-ethanesulfonic acid] 10 mM}, non-essential amino acids (0.1 mM) and Penicillin Streptomycin (1×). Seven days prior to assay, MCF-7 cells are switched to assay media which is the same as maintenance medium except supplemented with 10% dextran-coated charcoal-stripped fetal bovine serum (DCC-FBS) assay medium in place of 10% FBS. MCF-7 cells are removed from flasks using 10× Trypsin EDTA (phenol red free, Gibco BRL) and diluted to 1× in (Ca++/Mg++ free HBSS (phenol red-free). Cells are adjusted to 80,000 cells/ml in assay medium. […] For each of the agonist plates, a basal level (media) and a maximum stimulated level (with 1 μM E2) is determined. For each of the antagonist plates, a basal level (media) and a E2 (10 pM) alone control is determined. […] The plates are incubated overnight in the same incubator and then counted on the Wallac Microbeta counter. […] For the agonist mode, an EC50 and percent of maximum E2 stimulation and concentration of maximum stimulation is calculated.

[2] = tested on: Ishikawa human endometrial tumor cells; assay: Ishikawa cell assay (PNPP readout), agonist and antagonist modes; type: cell-based; conditions: for IC50: Homo sapiens, Ishikawa, antagonist mode, with 1 nM E2; for Ishikawa Agonist % Eff: agonist mode, % efficacy versus the response to Tamoxifen
From the text: Ishikawa human endometrial tumor cells are maintained in MEM (minimum essential medium, with Earle's salts and L-Glutamine, Gibco BRL, Gaithersburg, Md.), supplemented with 10% fetal bovine serum (FBS) (V/V), (Gibco BRL). One day prior to assay, growth media is changed to assay medium, DMEM/F-12 (3:1) (Dulbecco's Modified Eagle Medium: Nutrient Mixture F-12, 3:1 Mixture, phenol red-free, Gibco BRL) supplemented with 5% dextran coated charcoal stripped fetal bovine serum (DCC-FBS) (Hyclone, Logen, Utah), L-Glutamine (2 mM), MEM sodium pyruvate (1 mM), HEPES (N-[2-hydroxyethyl]piperazine-N′-[2-ethanesulfonic acid] 2 mM) all from Gibco BRL). After an overnight incubation, ishikawa cells are rinsed with Dulbecco's Phosphate Buffered Saline (1×) (D-PBS) without Ca^+2 and Mg^+2 (Gibco BRL), and trypsinized by a 3 minute incubation with 0.25% Trypsin/EDTA, phenol red-free (Gibco BRL). Cells are resuspended in assay medium and adjusted to 250,000 cells/ml. Approximately 25,000 cells in a 100 ul media are added to flat-bottom 96 wells microculture plates (Costar 3596) and incubated at 37° C. in a 5% CO2 humidified incubator for 24 hours. The next day, serial dilutions of compounds are prepared in assay medium (at 6 times the finial concentration in the assay). The assay is run in dual mode, agonist and antagonist modes. For the agonist mode, plates receive 25 μl/well of assay medium followed by 25 μl/well of diluted compounds (at 6× the final concentrations). For the antagonist mode, plates receive 25 µl/well of 6 nM E2 (β-Estradiol, Sigma, St. Louis, Mo.) followed by 25 μl/well of diluted compounds (at 6× the final concentrations). After an additional 48-hour incubation at 37° C. in a 5% CO2 humidified incubator, media is aspirated from wells and 100 μl fresh assay medium is added to each microculture. Serial dilutions of compounds are prepared and added to the cells as described above. After an additional 72 hour incubation at 37° C. in a 5% CO2 humidified incubator, the assay is quenched by removing media and rinsing plates twice in Dulbecco's Phosphate Buffered Saline (1×) (D-PBS) (Gibco BRL). The plates are dried for 5 min and frozen at −70° C. for at least 1 hour. The plates are then removed from the freezer and allowed to thaw at room temperature. To each well, 100 μl of 1-Step™ PNPP (Pierce Chemical Company, Rockford, Ill.) is added. After a 20-minute incubation, plates are read on a spectophotometer at 405 nm. The data is fitted to a linear interpolation to derive EC50 (for agonist mode) or IC50 (for antagonist mode) values. For the agonist mode, a % efficacy for each compound is calculated versus the response to Tamoxifen. For the antagonist mode, a % efficacy for each compound is calculated versus E2 (1 nM) alone.

T2 sequence (Q92731 whole entry): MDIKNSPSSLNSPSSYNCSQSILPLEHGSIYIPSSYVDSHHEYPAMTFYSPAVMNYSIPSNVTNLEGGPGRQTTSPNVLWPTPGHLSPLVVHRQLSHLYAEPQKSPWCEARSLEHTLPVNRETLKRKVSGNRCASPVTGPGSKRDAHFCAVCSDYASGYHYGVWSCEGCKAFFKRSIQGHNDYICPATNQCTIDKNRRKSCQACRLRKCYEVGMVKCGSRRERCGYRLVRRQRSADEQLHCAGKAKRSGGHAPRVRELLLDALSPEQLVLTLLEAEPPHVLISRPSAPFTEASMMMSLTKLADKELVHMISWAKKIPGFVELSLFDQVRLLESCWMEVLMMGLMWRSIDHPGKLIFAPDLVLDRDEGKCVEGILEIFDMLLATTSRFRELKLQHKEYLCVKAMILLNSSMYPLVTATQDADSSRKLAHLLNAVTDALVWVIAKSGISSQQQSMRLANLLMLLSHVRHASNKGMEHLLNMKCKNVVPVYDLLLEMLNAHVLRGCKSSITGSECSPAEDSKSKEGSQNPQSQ

SMILES | Ki (ERAlpha receptor) [nM] | Ki (ERbeta receptor) [nM] | IC50 [1] [nM] | IC50 [2] [nM] | Ishikawa Agonist % Eff [2] [%]
Oc1ccc2c3c(ccc2c1)Cc1ccccc1OC3c1ccc(OCCN2CCCCC2)cc1 (stereo not shown) [Example 2, 13-[4-(2-Piperidin-1-yl-ethoxy)-phenyl]-7,13-dihydro-12-oxa-benzo[4,5]cyclohepta[1,2-a]naphthalen-3-ol] | 2 | 3 | 10 | 454 | 24
Oc1ccc2c3c(sc2c1)Cc1ccccc1OC3c1ccc(OCCN2CCCCC2)cc1 (stereo not shown) [Example 1, 5-[4-(2-Piperidin-1-yl-ethoxy)-phenyl]-5,11-dihydro-6-oxa-12-thia-dibenzo[a,f]azulen-2-ol] | 1 | 1 | 8 | 19 | 4

Reference: patent publication US7375229B2, “Dihydro-dibenzo[B,E]oxepine based selective estrogen receptor modulators, compositions and methods” (Eli Lilly and Company, priority 2002, dated 2008)
